Measurements as given in patent US20160368919A1, “NOVEL PYRIDINE PYRAZINONES AS BET-FAMILY BROMODOMAIN INHIBITORS” (Pfizer Inc., priority 2015, published 2016).

Tests used:
[1] = biological target: T1, BRD4 BD1 (Homo sapiens, UniProt O60885); experiment: BRD4 BD1 Fluorescence Polarization (FP) competition binding assay; settings: BRD4 BD1 40 nM, probe PFI-411FP 2 nM
T1 construct: His-tagged BRD4 BD1 (44-160); made in house
Procedure: Compound binding to BRD4 BD1 was assessed with a FP competition binding assay. […] All assay components were diluted in 50 mM HEPES pH 7.4 containing 0.08% bovine serum albumin (assay buffer). To start the assay, 8 μL of BRD4 BD1 was added to each well of a low volume 384-well black flat bottom microtiter plate (Corning 3820) containing 4 μl of various concentrations of test compound (each plate also contained positive and negative control wells to define the upper and lower limits of the assay signal). After addition of BRD4 BD1, the assay plate was incubated at room temperature (RT, 20° C.). After 15 minutes, 4 μL of PFI-411FP was added to each well and the assay plate was placed in the dark at RT. The final assay concentration (FAC) of PFI-411FP was 2 nM, the FAC of BRD4 BD1 was 40 nM, the FAC of test compound ranged from 120 to 0.0012 μM and the FAC of DMSO was 0.4%. After 60 min, polarization values were measured with an Envision 2103 multilabel reader (Perkin Elmer) using a Cy5 dual enhanced mirror and excitation at 620 nm and emission at 688 nm. The percent (%) effect was calculated for each concentration of test compound and was relative to the amount of polarization signal produced by the positive and negative control wells contained within each assay plate. The concentrations and % effect values for test compounds were plotted versus each other with a proprietary curve fitting program using a four-parameter logistic dose response equation and the concentration of compound required for 50% effect (IC50) was determined. The Ki values of competitive inhibitors were calculated using the equation described by Nikolovska-Coleska et al. (Development and optimization of a binding assay for the XIAP BIR3 domain using fluorescence polarization. Analytical Biochemistry (2004) 332: 261-273).

[2] = test system: LPS-induced IL-6 production in human whole blood; experiment: IL-6 human whole blood (HWB) assay, LPS-stimulated, HTRF detection; type: cell-based; settings: 1 ng/ml LPS, 4 hours
Procedure: Compound effect on IL-6 production was determined using lipopolysaccharide (LPS)-stimulated human whole blood and an HTRF (Homogeneous Time-Resolved Fluorescence) IL-6 detection kit (Human IL6 HTRF Assay CisBio 62IL6PEC). HWB was collected by venous puncture from healthy donors, transferred to a 50 ml polypropylene tube containing sodium heparin (14.3 units per mL of HWB) and then placed in a 37° C. water bath until use. To start the assay, 80 μL of heparin-treated HWB containing 1 ng/ml of LPS (equivalent to LPS ˜EC80 with regard to stimulation of IL-6 production in HWB under these assay conditions) was added to each well of a 384-well, sterile, endotoxin-free, polypropylene plate (Greiner 781281) containing 160 nL of various concentrations of test compound (each plate also contained positive and negative control wells to define the upper and lower limits of the assay signal). The plate was then placed in a thermoshaker incubator set to 370C (Boekel 270440). The final assay concentration (FAC) of test compound ranged from 60 to 0.0006 μM and the FAC of DMSO was 0.2%. After 4 hours, the assay plate was removed from the incubator and centrifuged at 700×g for 10 minutes. 5 μL of the resulting upper plasma layer was removed from each well and diluted 1:2 with 1×Dulbecco's phosphate buffered saline (DPBS). 5 μL of this diluted plasma was then transferred to a white 384-well low volume assay plate (Greiner 784080) containing 5 μL of combined anti-IL-6-Cryptate and anti-IL-6-XL665 detection antibodies (per manufacturer's protocol). The plate was then sealed with a Top Seal (Perkin Elmer 6005185) and incubated at room temperature (RT, 20° C.). After 16-18 hrs (overnight), the HTRF assay signal was read on an Envision 2103 plate reader using a Lance Delfia Dual/Bias mirror TRF laser excitation and emission was measured at 665 nm and 615 nm respectively. The percent (%) effect was calculated for each concentration of test compound and was relative to the amount of HTRF signal produced by the positive and negative control wells contained within each assay plate. The concentrations and % effect values for test compounds were plotted versus each other with a proprietary curve fitting program using a four-parameter logistic dose response equation and the concentration of compound required for 50% effect (IC50) was determined.

[3] = test system: MM1.S cells; experiment: MM1.S cell proliferation assay (CellTiter-Glo); type: cell-based; settings: for IC50: MM1.S, CTG at 96h; for inhibition of proliferation of MM1.S cells: dose dependent manner, FIG. 1.A
Procedure: (§1) MM1.S (dexamethasone sensitive) and OPM-2 cells were purchased from ATCC and maintained in RPMI-1640 medium with 10% fetal bovine serum at 37 degrees, 5% CO2. Cells were seeded at 10,000 cells/well in 100 uL medium. The following day compounds or control vehicle (DMSO) were added at indicated concentrations in 10 ul volume. Compound treated OPM-2 cells and MM1.S cell were analyzed for cell density at 72h and 96h, respectively, using CellTiter-Glo® (CTG) reagent (Promega). The CTG assay measures the amount of ATP present, which indicates the number of viable cells in culture.

[4] = test system: OPM-2 cells; experiment: OPM-2 cell proliferation assay (CellTiter-Glo); type: cell-based; settings: for IC50: OPM-2, CTG at 72h; for inhibition of proliferation of OPM-2 cells: dose dependent manner, FIG. 1.B
Procedure: as §1

[5] = test system: LnCaP cells, AR(+); experiment: CRPC cell proliferation assay (CellTiter-Glo), LnCaP; type: cell-based; settings: CTG at 96h
Procedure: (§2) Castrate-Resistant Prostate Cancer (CRPC) Cell Proliferation Assay • Cells were seeded into 96-well plates at 2,000-10,000 cells/well in 100 uL medium. Four AR(+) cell lines (LnCaP, C4-2 (parental), C4-2AR-WT and C4-2AR—F876L) and one AR(−) cell line (DU-145) were studied. Compound treated cells were analyzed for cell density at 96h, using CellTiter-Glo® (CTG) reagent (Promega).

[6] = test system: C4-2 (parental) cells, AR(+); experiment: CRPC cell proliferation assay (CellTiter-Glo), C4-2; type: cell-based; settings: CTG at 96h
Procedure: as §2

[7] = test system: C4-2AR-WT cells, AR(+); experiment: CRPC cell proliferation assay (CellTiter-Glo), C4-2AR-WT; type: cell-based; settings: CTG at 96h
Procedure: as §2

[8] = test system: C4-2AR-F876L cells, AR(+); experiment: CRPC cell proliferation assay (CellTiter-Glo), C4-2AR-F876L; type: cell-based; settings: CTG at 96h
Procedure: as §2

[9] = test system: DU-145 cells, AR(−); experiment: CRPC cell proliferation assay (CellTiter-Glo), DU-145; type: cell-based; settings: CTG at 96h
Procedure: as §2

[10] = test system: HCC2429 cells; experiment: NMC HCC2429 cell proliferation assay (CellTiter-Glo); type: cell-based; settings: Homo sapiens; HCC2429, CTG at 96h
Procedure: NMC HCC2429 Cell Proliferation Assay • HCC2429 cells were plated into a 96-well plate (10,000 cells/well). Compounds or control vehicle (DMSO) were added at indicated concentrations. Compound-treated HCC2429 cells were analyzed for cell density at 96h using CellTiter-Glo® (CTG) reagent (Promega).

[11] = test system: MYC, SOX2, involucrin and Keratin 14 expression in HCC2429 cells; experiment: Biomarker analysis in HCC2429 cells (RT-PCR, Western blot); type: cell-based
Procedure: HCC2429 cells were plated into a 6-well plate (250,000 cells/well). Cells were treated with compounds or control vehicle (DMSO) at the indicated concentrations for 72 hrs. Cells were collected, washed in PBS, and split for western blot and RNA analysis.

[12] = HCC2429, Western blot, 72 hrs, concentration-dependent

Compound | IC50 [1] [nM] | IC50 [2] [nM] | further results
CC[C@@H](c1ncccn1)n1c(=O)c(NCCC(=O)O)nc2ccc(-c3c(C)noc3C)nc21 [Example 45, N-{6-(3,5-dimethyl-1,2-oxazol-4-yl)-3-oxo-4-[(1S)-1-(pyrimidin-2-yl)propyl]-3,4-dihydropyrido[2,3-b]pyrazin-2-yl}-beta-alanine] | 325 | 8440 | –
CC[C@@H](COC)n1c(=O)c(NCCC(=O)O)nc2ccc(-c3c(C)noc3C)nc21 [Example 46, N-{6-(3,5-dimethyl-1,2-oxazol-4-yl)-4-[(2S)-1-methoxybutan-2-yl]-3-oxo-3,4-dihydropyrido[2,3-b]pyrazin-2-yl}-beta-alanine] | 355 | 6220 | –
CC[C@H](COC)n1c(=O)c(NCCC(=O)O)nc2ccc(-c3c(C)noc3C)nc21 [Example 47, N-{6-(3,5-dimethyl-1,2-oxazol-4-yl)-4-[(2R)-1-methoxybutan-2-yl]-3-oxo-3,4-dihydropyrido[2,3-b]pyrazin-2-yl}-beta-alanine] | 194 | 6160 | IC50 ([3]; Homo sapiens): 39 nM; inhibition of proliferation of MM1.S cells [3]: inhibited proliferation; IC50 ([4]; Homo sapiens): 160 nM; inhibition of proliferation of OPM-2 cells [4]: inhibited proliferation; Max % Inh [5]: 62%; IC50 ([5]; Homo sapiens): > 5000 nM; IC50 [6]: > 5000 nM; Max % Inh [6]: 80%; IC50 [7]: > 5000 nM; Max % Inh [7]: 82%; IC50 [8]: > 5000 nM; Max % Inh [8]: 81%; Max % Inh [9]: 43%; IC50 ([9]; Homo sapiens): > 5000 nM
COCC(COC)n1c(=O)c(NCCC(=O)O)nc2ccc(-c3c(C)noc3C)nc21 [Example 48, N-[4-(1,3-dimethoxypropan-2-yl)-6-(3,5-dimethyl-1,2-oxazol-4-yl)-3-oxo-3,4-dihydropyrido[2,3-b]pyrazin-2-yl]-beta-alanine] | 465 | 15100 | –
Cc1noc(C)c1-c1ccc2nc(NCCC(=O)NS(C)(=O)=O)c(=O)n([C@@H](C)c3ccccc3)c2n1 [Example 50, N^3-{6-(3,5-dimethyl-1,2-oxazol-4-yl)-3-oxo-4-[(1S)-1-phenylethyl]-3,4-dihydropyrido[2,3-b]pyrazin-2-yl}-N-(methylsulfonyl)-beta-alaninamide] | 235 | 32000 | –
Cc1noc(C)c1-c1ccc2nc(NCCc3nnn[nH]3)c(=O)n([C@@H](C)c3ccccc3)c2n1 [Example 51, 6-(3,5-dimethyl-1,2-oxazol-4-yl)-4-[(1S)-1-phenylethyl]-2-{[2-(1H-tetrazol-5-yl)ethyl]amino}pyrido[2,3-b]pyrazin-3(4H)-one] | 294 | 63700 | –
CCC[C@@H](c1ccccc1)n1c(=O)c(NCCC(=O)O)nc2ccc(-c3c(C)noc3C)nc21 [Example 52, N-{6-(3,5-dimethyl-1,2-oxazol-4-yl)-3-oxo-4-[(1S)-1-phenylbutyl]-3,4-dihydropyrido[2,3-b]pyrazin-2-yl}-beta-alanine] | 62.7 | 1090 | –
Cc1noc(C)c1-c1ccc2nc(NCCC(=O)O)c(=O)n([C@H](c3ccccc3)C(C)C)c2n1 [Example 53, N-{6-(3,5-dimethyl-1,2-oxazol-4-yl)-4-[(1S)-2-methyl-1-phenylpropyl]-3-oxo-3,4-dihydropyrido[2,3-b]pyrazin-2-yl}-beta-alanine] | 125 | 9260 | –
Cc1noc(C)c1-c1ccc2nc(NCCC(=O)O)c(=O)n([C@H](c3ccccn3)C(C)C)c2n1 [Example 54, N-{6-(3,5-dimethyl-1,2-oxazol-4-yl)-4-[(1S)-2-methyl-1-(pyridin-2-yl)propyl]-3-oxo-3,4-dihydropyrido[2,3-b]pyrazin-2-yl}-beta-alanine] | 99.4 | 2640 | –
Cc1noc(C)c1-c1ccc2nc(NCCC(=O)O)c(=O)n([C@@H](C)C3CCCCC3)c2n1 [Example 55, N-{4-[(1S)-1-cyclohexylethyl]-6-(3,5-dimethyl-1,2-oxazol-4-yl)-3-oxo-3,4-dihydropyrido[2,3-b]pyrazin-2-yl}-beta-alanine] | 130 | 11400 | –
CCC(CC)n1c(=O)c(NCCC(=O)O)nc2ccc(-c3c(C)noc3C)nc21 [Example 56, N-[6-(3,5-dimethyl-1,2-oxazol-4-yl)-3-oxo-4-(pentan-3-yl)-3,4-dihydropyrido[2,3-b]pyrazin-2-yl]-beta-alanine] | 346 | 11900 | –
CNC(=O)CNc1nc2ccc(-c3c(C)noc3C)nc2n([C@@H](C)c2ccccc2OC)c1=O [Example 57, N^2-{6-(3,5-dimethyl-1,2-oxazol-4-yl)-4-[(1S)-1-(2-methoxyphenyl)ethyl]-3-oxo-3,4-dihydropyrido[2,3-b]pyrazin-2-yl}-N-methylglycinamide] | 159 | 919 | –
CCNC(=O)C[C@@H]1N=C(c2ccc(Cl)cc2)c2cc(OC)ccc2-n2c(C)nnc21 [IBET-762] | – | – | IC50 ([3]; Homo sapiens): 12 nM; inhibition of proliferation of MM1.S cells [3]: inhibited proliferation; IC50 ([4]; Homo sapiens): 30 nM; inhibition of proliferation of OPM-2 cells [4]: inhibited proliferation; IC50 [10]: 85 nM; mRNA expression of involucrin ([11]; HCC2429, RT-PCR, 72 hours, 50 nM, 200 nM and 500 nM, dose dependent): increased; MYC protein level [11, 12]: down-regulated; SOX2 protein level [11, 12]: down-regulated
Cc1sc2c(c1C)C(c1ccc(Cl)cc1)=N[C@@H](CC(=O)OC(C)(C)C)c1nnc(C)n1-2 [JQ1(−)] | – | – | IC50 [3]: > 1000 nM; IC50 [4]: > 1000 nM
